# Experimental data published in patent US20080039422A1, “Vitamin B12-Containing Compositions and Methods of Use” (Transition Therapeutics Inc., priority 2004, published 2008).
# How the values were obtained:
# [1] = Methylcobalamin-containing solutions; type: physicochemical
# [2] = Methylcobalamin-containing solutions; type: physicochemical; remark: listed apart in the source
# Protocol: A variety of solutions containing methylcobalamin (Me-Cbl) were tested. In one series of experiments, solutions containing ethanol, propylene glycol, or both ethanol and propylene glycol were challenged with 20 mg/ml Me-Cbl. In another series of experiments, the same solutions were challenged with 50 mg/ml Me-Cbl. The conditions were the same as those described for CN-Cbl. In both series, the excipients included: (a) 15% ethanol; (b) 20% ethanol; (c) 20% propylene glycol; (d) 40% propylene glycol; (e) 15% ethanol and 20% propylene glycol; and (f) 20% ethanol and 40% propylene glycol. Following suitable dilution, the absorbance at A340 was measured on Day 0, Day 1, and Day 2 (Table 7).
compound,measurement,setting,value
"C/C1=C2/[N-][C@H]([C@H](CC(N)=O)[C@@]2(C)CCC(=O)NC[C@H](C)OP(=O)([O-])O[C@H]2[C@@H](O)[C@@H](n3cnc4cc(C)c(C)cc43)O[C@@H]2CO)[C@]2(C)N=C(/C(C)=C3N=C(/C=C4N=C1[C@@H](CCC(N)=O)C\4(C)C)[C@@H](CCC(N)=O)[C@]\3(C)CC(N)=O)[C@@H](CCC(N)=O)[C@]2(C)CC(N)=O.[CH3-].[Co+3] [Me-Cbl, methylcobalamin]",Conc of Me-Cbl,"[1]; challenge 20 mg/mL, ethanol 0%, PG 0%, Day 0",17180 µg/mL
same,Conc of Me-Cbl,"[1]; challenge 20 mg/mL, ethanol 0%, PG 0%, Day 0 reading",12780 µM
same,Conc of Me-Cbl,"[1]; challenge 20 mg/mL, ethanol 0%, PG 0%, Day 1",14030 µg/mL
same,Conc of Me-Cbl,"[1]; challenge 20 mg/mL, ethanol 0%, PG 0%, Day 3",13180 µg/mL
same,Conc of Me-Cbl,"[1]; challenge 20 mg/mL, ethanol 0%, PG 20%, Day 3",23370 µg/mL
same,Conc of Me-Cbl,"[1]; challenge 20 mg/mL, ethanol 0%, PG 40%, Day 0",23940 µg/mL
same,Conc of Me-Cbl,"[1]; challenge 20 mg/mL, ethanol 0%, PG 40%, Day 1",24340 µg/mL
same,Conc of Me-Cbl,"[1]; challenge 20 mg/mL, ethanol 0%, PG 40%, Day 3",24500 µg/mL
same,Conc of Me-Cbl,"[1]; challenge 20 mg/mL, ethanol 15%, PG 0%, Day 0",22800 µg/mL
same,Conc of Me-Cbl,"[1]; challenge 20 mg/mL, ethanol 15%, PG 0%, Day 0 reading",16960 µM
same,Conc of Me-Cbl,"[1]; challenge 20 mg/mL, ethanol 15%, PG 0%, Day 1",12530 µg/mL
same,Conc of Me-Cbl,"[1]; challenge 20 mg/mL, ethanol 15%, PG 0%, Day 3",11120 µg/mL
same,Conc of Me-Cbl,"[1]; challenge 20 mg/mL, ethanol 15%, PG 20%, Day 0",22720 µg/mL
same,Conc of Me-Cbl,"[1]; challenge 20 mg/mL, ethanol 15%, PG 20%, Day 0 reading",16900 µM
same,Conc of Me-Cbl,"[1]; challenge 20 mg/mL, ethanol 15%, PG 20%, Day 1",23450 µg/mL
same,Conc of Me-Cbl,"[1]; challenge 20 mg/mL, ethanol 15%, PG 20%, Day 3",21910 µg/mL
same,Conc of Me-Cbl,"[1]; challenge 20 mg/mL, ethanol 20%, PG 0%, Day 0",23130 µg/mL
same,Conc of Me-Cbl,"[1]; challenge 20 mg/mL, ethanol 20%, PG 0%, Day 0 reading",17200 µM
same,Conc of Me-Cbl,"[1]; challenge 20 mg/mL, ethanol 20%, PG 0%, Day 1",9180 µg/mL
same,Conc of Me-Cbl,"[1]; challenge 20 mg/mL, ethanol 20%, PG 0%, Day 3",9180 µg/mL
same,Conc of Me-Cbl,"[1]; challenge 20 mg/mL, ethanol 20%, PG 40%, Day 0 reading",16960 µM
same,Conc of Me-Cbl,"[1]; challenge 20 mg/mL, ethanol 20%, PG 40%, Day 1",23860 µg/mL
same,Conc of Me-Cbl,"[1]; challenge 20 mg/mL, ethanol 20%, PG 40%, Day 3",24100 µg/mL
same,Conc of Me-Cbl,"[1]; challenge 50 mg/mL, ethanol 0%, PG 0%, Day 0",12660 µg/mL
same,Conc of Me-Cbl,"[1]; challenge 50 mg/mL, ethanol 0%, PG 0%, Day 0 reading",9410 µM
same,Conc of Me-Cbl,"[1]; challenge 50 mg/mL, ethanol 0%, PG 0%, Day 1",12860 µg/mL
same,Conc of Me-Cbl,"[1]; challenge 50 mg/mL, ethanol 0%, PG 0%, Day 3",12860 µg/mL
same,Conc of Me-Cbl,"[1]; challenge 50 mg/mL, ethanol 0%, PG 20%, Day 0",58220 µg/mL
same,Conc of Me-Cbl,"[1]; challenge 50 mg/mL, ethanol 0%, PG 20%, Day 0 reading",43310 µM
same,Conc of Me-Cbl,"[1]; challenge 50 mg/mL, ethanol 0%, PG 20%, Day 1",17990 µg/mL
same,Conc of Me-Cbl,"[1]; challenge 50 mg/mL, ethanol 0%, PG 20%, Day 3",17790 µg/mL
same,Conc of Me-Cbl,"[1]; challenge 50 mg/mL, ethanol 0%, PG 40%, Day 0",57210 µg/mL
same,Conc of Me-Cbl,"[1]; challenge 50 mg/mL, ethanol 0%, PG 40%, Day 0 reading",42560 µM
same,Conc of Me-Cbl,"[1]; challenge 50 mg/mL, ethanol 0%, PG 40%, Day 1",23210 µg/mL
same,Conc of Me-Cbl,"[1]; challenge 50 mg/mL, ethanol 0%, PG 40%, Day 3",22160 µg/mL
same,Conc of Me-Cbl,"[1]; challenge 50 mg/mL, ethanol 15%, PG 0%, Day 0",56610 µg/mL
same,Conc of Me-Cbl,"[1]; challenge 50 mg/mL, ethanol 15%, PG 0%, Day 0 reading",42110 µM
same,Conc of Me-Cbl,"[1]; challenge 50 mg/mL, ethanol 15%, PG 0%, Day 1",11930 µg/mL
same,Conc of Me-Cbl,"[1]; challenge 50 mg/mL, ethanol 15%, PG 0%, Day 3",11320 µg/mL
same,Conc of Me-Cbl,"[1]; challenge 50 mg/mL, ethanol 15%, PG 20%, Day 0",56610 µg/mL
same,Conc of Me-Cbl,"[1]; challenge 50 mg/mL, ethanol 15%, PG 20%, Day 0 reading",42110 µM
same,Conc of Me-Cbl,"[1]; challenge 50 mg/mL, ethanol 15%, PG 20%, Day 1",15490 µg/mL
same,Conc of Me-Cbl,"[1]; challenge 50 mg/mL, ethanol 15%, PG 20%, Day 3",15450 µg/mL
same,Conc of Me-Cbl,"[1]; challenge 50 mg/mL, ethanol 20%, PG 0%, Day 0",58020 µg/mL
same,Conc of Me-Cbl,"[1]; challenge 50 mg/mL, ethanol 20%, PG 0%, Day 0 reading",43160 µM
same,Conc of Me-Cbl,"[1]; challenge 50 mg/mL, ethanol 20%, PG 0%, Day 3",10350 µg/mL
same,Conc of Me-Cbl,"[1]; challenge 50 mg/mL, ethanol 20%, PG 40%, Day 1",51150 µg/mL
same,Conc of Me-Cbl,"[1]; challenge 50 mg/mL, ethanol 20%, PG 40%, Day 3",48120 µg/mL
same,Conc of Me-Cbl,"[2]; challenge 20 mg/mL, ethanol 0%, PG 20%, Day 0",23610 µg/mL
same,Conc of Me-Cbl,"[2]; challenge 20 mg/mL, ethanol 0%, PG 20%, Day 0 reading",17560 µM
same,Conc of Me-Cbl,"[2]; challenge 20 mg/mL, ethanol 0%, PG 20%, Day 1",24020 µg/mL
same,Conc of Me-Cbl,"[2]; challenge 20 mg/mL, ethanol 0%, PG 40%, Day 0 reading",17800 µM
same,Conc of Me-Cbl,"[2]; challenge 20 mg/mL, ethanol 20%, PG 40%, Day 0",22800 µg/mL
same,Conc of Me-Cbl,"[2]; challenge 50 mg/mL, ethanol 20%, PG 0%, Day 1",10470 µg/mL
same,Conc of Me-Cbl,"[2]; challenge 50 mg/mL, ethanol 20%, PG 40%, Day 0",57620 µg/mL
same,Conc of Me-Cbl,"[2]; challenge 50 mg/mL, ethanol 20%, PG 40%, Day 0 reading",42860 µM
